Each structure is given as a SMILES string. Like-named read-outs stand apart in the source and are kept apart here.

The test system of assay [1] is rat pituitary cells. Briefly: growth hormone releasing activity from rat pituitary cells in vitro (GH measured by RIA). The format is cell-based. The settings on record: read-out: EC50 (GH releasing efficacy). Here is the method:
Compounds of the present invention were evaluated for their growth hormone releasing activity from rat pituitary cells in vitro in accordance with the method described in the literature (R. G. Smith et al., Science, 260, 1640 (1993)). Pituitary glands removed from 7-week-old Wistar/ST male rats were washed with HBSS (Hank's balanced salt solution) three times and minced into small pieces (ca. 1 mm^2) using a pair of scissors. […] An enzyme solution (0.1 mL per a pituitary gland) was added and the cell dispersion was carried out in a water bath at 37° C. for ca 20-30 min, during which time the digested mixture was mixed by successive up-take and down-take of the suspension using a pipette, every 5 minutes. The resulting cell suspension was centrifuged at 1200 rpm for 2-3 min at room temperature and the supernatant fluid was discarded. A cultured medium was added and the resulting cell suspension was again centrifuged at 1200 rpm for 2-3 min at room temperature and the supernatant fluid was discarded. This procedure was repeated another 2 times. […] The culture medium was discarded and an assay medium (0.1 mL) was added. The incubation was continued for 1.5 h and the cells were washed with the assay medium. […] The supernatant fluid was recovered and the GH content present was measured by RIA (radioimmunoassay). An aliquot of the solution was diluted to 0.05 mL with a RIA buffer which consisted of PBS (pH 7.3) containing 1% BSA, 0.1% NaN3 and 25 mM EDTA. […] Cell membrane fractions containing protein A were added and the mixture was allowed to stand for 20 min and centrifuged. The supernatant fluid was removed and the precipitates were washed with the RIA buffer. The ^125I content in the precipitates was measured. The GH concentration in the sample was calculated from the standard curve made by using the standard GH sample. The EC50 values of the test compounds were determined using recurrent calculation from the following equation, where X is the concentration of the test compound, Y is the GH concentration at the given assay, and B is the EC50 value. C means recurrently calculated GH concentration in the absence of the test compound and A+C means recurrently calculated GH concentration when a maximum amount of the test compound is present. […] The culture medium used here consisted of DMEM (Dulbecco's Modified Eagle's Medium) containing 10% horse serum, 2.5% fetal bovine serum, 1% nonessential amino acids, 0.01% streptomycin and penicillin (100 IU/mL). The cultured medium described above was adjusted to pH 7.3 by adding a 25 mM HEPES buffer and the resulting solution was used as the assay medium. […] The resulting mixture was used as the test compound solution. […]

Assay [2] in a line: increase in the weight of rats after oral administration for 9 days. The format is in vivo, rat. The settings on record: 10 mg/kg/day×2 orally for 9 days, 11-week-old F 344/N rats (6/group); p<0.01; distilled water group 13.5±2.3 g. Here is the method:
The compound of Example 74 (10 mg/kg/day×2) were administered orally to 11-week-old F 344/N rats (6/group) for 9 days and increase in the weight of each rat was measured.

For the compound `CCN(CC)CCN1C(=O)C(O)(c2ccccc2Cl)c2c1cc(C#CCCC(=O)N1CCOCC1)cc2C(F)(F)F` (centres unmarked) [Example 70, 1-(2-Diethylaminoethyl)-4-trifluoromethyl-6-(4-morpholinocarbonyl-1-butynyl)-3-hydroxy-3-(2-chlorophenyl)oxindole], the 50% effective concentration (EC50) in assay [1] (Rattus norvegicus, 0.25 h) was 5 nM.
On to `CCN(CC)CCN1C(=O)C(O)(c2ccccc2F)c2c(Br)cccc21` (centres unmarked) [Example 21, 4-Bromo-1-(2-diethylaminoethyl)-3-hydroxy-3-(2-fluorophenyl)oxindole], for which, in assay [1] (Rattus norvegicus, 0.25 h), the EC50 came to 4 nM.
As for `CCN(CC)CCN1C(=O)C(O)(c2ccccc2Cl)c2c1cc(C(N)=O)cc2C(F)(F)F` (single isomer, unassigned; (+)) [Example 74, (+)-1-(2-Diethylaminoethyl)-4-trifluoromethyl-6-carbamoyl-3-hydroxy-3-(2-chlorophenyl)oxindole], the EC50 in assay [1] (Rattus norvegicus, 0.25 h) came to 0.5 nM. The “increase in the weight” value in assay [2] worked out at 19.5 ± 2.1 g.
Regarding `CCN(CC)CCN1C(=O)C(O)(c2ccc(Cl)cc2Cl)c2c1cc(C(N)=O)cc2C(F)(F)F` (centres unmarked) [Example 91, 1-(2-Diethylaminoethyl)-4-trifuoromethyl-6-carbamoyl-3-hydroxy-3-(2,4-dichlorophenyl)oxindole], the EC50 in assay [1] (cultured pituitary cells of 7-week-old Wistar/ST male rats, 15 min at 37° C., GH by RIA) came to 1.2 nM.

Usually EC50 stands for the concentration that produces a half-maximal response.

The values above are taken from US6576656B1, “Oxindole derivative” (Sumitomo Pharmaceuticals Co., Ltd., priority 1998, dated 2003).
